From US20160263073A1, “MONOACYLGLYCEROLS FOR USE IN THE TREATMENT OF MALABSORPTION HAVING A MECHANICAL BASIS” (NESTEC S.A., priority 2013, published 2016)

Experiments:
[1] = lipid maldigestion or malabsorption rat model (XENICAL-induced): EPA level in red blood cell lipids; type: in vivo; conditions: rats; for level of EPA incorporated in red blood cells: day 7, with XENICAL (ORLISTAT), FIG. 2
Method: The concept was tested in a lipid maldigestion or malabsorption rat model. The maldigestion or malabsorption condition was obtained using XENICAL® (ORLISTAT), a pancreatic and gastric lipases inhibitor (tetrahydrolipstatin; see FIG. 7). Rats were fed during 21 days with long-chain polyunsaturated fatty acid (LC-PUFA) supplements containing mainly eicosapentaenoic (EPA) acid. Fish oil was used as a source of triacylglycerols, and different EPA glycerides were evaluated. XENICAL® (ORLISTAT) was given at a level sufficient to decrease lipid absorption by 40%. A group receiving fish oil without XENICAL® (ORLISTAT) was used as a positive control. At different time intervals (D3, D7, […]), the fatty acid profiles of red blood cell and plasma lipids were determined. At the end of the experiment, the fatty acid profiles of different tissues were determined. The main objective was to follow the level of EPA in red blood cell and plasma lipids. The main comparison evaluated was the difference in EPA level between the group receiving EPA-containing sn-1(3) MAG in combination with XENICAL® (ORLISTAT) and the positive control group (fish oil+XENICAL® (ORLISTAT)). […] This comparison corroborates the validity of the model.

[2] = clinical study: sn-1(3) MAG versus fish oil (TAG) in delivering EPA under lipid maldigestion induced by XENICAL; type: in vivo, human
Method: This clinical study compared the efficacy of sn-1(3) MAG and fish oil (TAG) in delivering EPA in humans under lipid maldigestion conditions induced by XENICAL® (ORLISTAT). The comparison was tested in volunteers having a BMI of 37-40 kg/m^2 and treated with XENICAL® (ORLISTAT) to induce lipid maldigestion or not treated with XENICAL® (ORLISTAT). The primary objective was to assess accretion of EPA in erythrocytes over 21 days when consumed as fish oil (TAG) or sn-1(3) MAG. The secondary objectives were to assess accretion of EPA in plasma over 21 days and also to assess the pharmacokinetics of EPA after an acute dose either in the form of sn-1(3) MAG or TAG (AUC in chylomicrons over 10 hours postprandial).

Structure (SMILES) | EPA incorporation in red blood cells ([1]; day 7, fish oil with XENICAL compared with fish oil without XENICAL) | incorporation of LC-PUFAs in tissue ([1]; conditions of lipid maldigestion or malabsorption) | level of EPA incorporated in red blood cells ([1]; compared with fish oil in combination with XENICAL, all P values lower than 0.05) | level of EPA incorporated in red blood cells ([1]; compared with the fish oil group without XENICAL) | chronic effect: accretion of EPA in erythrocytes after 21 days ([2]; humans, with XENICAL, in comparison to fish oil and XENICAL, p=0.0001, FIG. 5) | chronic effect: accretion of EPA in plasma after 21 days ([2]; humans, with XENICAL, relative to fish oil and XENICAL, p=0.0003, FIG. 6) | carrier for EPA ([2]; obese subjects treated with XENICAL, compared with fish oil (TAG))
CCCCCCCCCCC[C@@H](C[C@@H]1OC(=O)[C@H]1CCCCCC)OC(=O)[C@H](CC(C)C)NC=O [XENICAL® (ORLISTAT), tetrahydrolipstatin, reference compound] | decreases EPA incorporation in red blood cells | – | – | – | – | – | –
CC/C=C\C/C=C\C/C=C\C/C=C\C/C=C\CCCC(=O)OCC(O)CO (stereo not shown) [sn-1(3) MAG, sn-1(3)-monoeicosapentaenoylglycerol] | – | improved | statistically higher | even higher than the fish oil group | statistically significant | statistically significant | better carrier for EPA than fish oil (TAG)
